Values of other authors, collected in paper PMC7878667, “The Kinase Specificity of Protein Kinase Inhibitor Peptide” (Frontiers in Pharmacology, 2021).

Legend:
[1] = system: PKBα; conditions: ref Murray, 2008
Text: (§1) Despite the additional targets of PKI identified in our study, PKI seems more specific than the other commonly used PKA inhibitors, H89 and KT 5720 ([Murray, 2008]). This may be due to their different mechanisms of action. […] The off-target effects of these reagents have partial overlap ([Murray, 2008]).

[2] = system: ROCK2; conditions: ref Murray, 2008
Text: as §1

[3] = system: PKA catalytic subunit; conditions: ref Murray, 2008
Text: as §1

[4] = system: PDK1; conditions: ref Murray, 2008
Text: as §1

[5] = system: PKC; conditions: ref Day et al., 1989; Smith et al., 1990
Text: In principle, this could be due to PKI interfering with 1) the protease reaction, 2) the fluorescence detection, or 3) the FRET response. […] Second, the forms of PKC used are different: we used purified human recombinant PKC isoforms expressed in insect ce ...

Molecule	effect on PKBα [1]	effect on ROCK2 [2]	mechanism of PKA inhibition [3]	effect on PDK1 activity [4]	influence on PKC [5]
O=S(=O)(NCCNC/C=C/c1ccc(Br)cc1)c1cccc2cnccc12 [H89]	inhibited	inhibits ROCK2 potently	competitively inhibits ATP binding on the PKA catalytic subunit		
CCCCCCOC(=O)[C@]1(O)C[C@@H]2O[C@@]1(C)n1c3ccccc3c3c4c(c5c6ccccc6n2c5c31)C(=O)NC4 [KT 5720]	inhibited		competitively inhibits ATP binding on the PKA catalytic subunit	inhibited	
IAAGRTGRRQAIHDILVAA [PKI-tide]					did not find significant influence
